Test results reported in the supplement of paper PMC6045584.
± gives the standard deviation of the averaged measurements.

Legend:
[1] = compound: C[C@@H](Oc1cc(-c2cnn(C3CCNCC3)c2)cnc1N)c1c(Cl)ccc(F)c1Cl [CRIZOTINIB]; assay: surviving fraction relative to DMSO-only wells; higher = less growth inhibition; conditions: exposure time: 5 days
Procedure, shortened: (§1)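 Surviving fraction is CellTiter-Glo luminescence divided by the median of wells given DMSO only. For this, log-phase tumour cell lines went into 384-well plates at 250–500 cells per well and, 24 hours later, into five days of continuous inhibitor exposure at 0.5, 1, 5, 10, 50, 100, 500 and 1000 nM. Lines were screened three times and retained only if replicate Pearson r >0.7 and median Z' >0.3.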

[2] = compound: C[C@]12CC[C@H](O)CC1=CC[C@@H]1[C@@H]2CC[C@]2(C)C(c3cccnc3)=CC[C@@H]12 [ABIRATERONE]; assay: as above; conditions: exposure time: 5 days
Procedure, shortened: as §1

Test System: SJSA1 BONE
- surviving fraction ([1]; 0.5 nM): 1.72 ± 0.049
- surviving fraction ([1]; 1 nM): 1.69 ± 0.11
- surviving fraction ([1]; 5 nM): 1.65 ± 0.11
- surviving fraction ([1]; 10 nM): 1.719 ± 0.008
- surviving fraction ([1]; 50 nM): 0.796 ± 0.079
- surviving fraction ([1]; 100 nM): 1.57 ± 0.021
- surviving fraction ([1]; 500 nM): 1.62 ± 0.037
- surviving fraction ([1]; 1000 nM): 1.06 ± 0.11
- surviving fraction ([2]; 0.5 nM): 1.04 ± 0.051
- surviving fraction ([2]; 1 nM): 1.09 ± 0.086
- surviving fraction ([2]; 5 nM): 1.13 ± 0.032
- surviving fraction ([2]; 10 nM): 1.1 ± 0.026
- surviving fraction ([2]; 50 nM): 1.11 ± 0.037
- surviving fraction ([2]; 100 nM): 1.15 ± 0.031
- surviving fraction ([2]; 500 nM): 1.1 ± 0.015
- surviving fraction ([2]; 1000 nM): 1.04 ± 0.073

Test System: HCC1395 BREAST
- surviving fraction ([1]; 0.5 nM): 1.06 ± 0.18
- surviving fraction ([1]; 1 nM): 1.28 ± 0.025
- surviving fraction ([1]; 5 nM): 1.33 ± 0.061
- surviving fraction ([1]; 10 nM): 1.44 ± 0.15
- surviving fraction ([1]; 50 nM): 1.29 ± 0.18
- surviving fraction ([1]; 100 nM): 1.28 ± 0.018
- surviving fraction ([1]; 500 nM): 1.21 ± 0.14
- surviving fraction ([1]; 1000 nM): 1.21 ± 0.061
- surviving fraction ([2]; 0.5 nM): 1.07 ± 0.11
- surviving fraction ([2]; 1 nM): 1.07 ± 0.015
- surviving fraction ([2]; 5 nM): 1.14 ± 0.059
- surviving fraction ([2]; 10 nM): 1.13 ± 0.021
- surviving fraction ([2]; 50 nM): 1.08 ± 0.12
- surviving fraction ([2]; 100 nM): 1.11 ± 0.13
- surviving fraction ([2]; 500 nM): 1.146 ± 0.0049
- surviving fraction ([2]; 1000 nM): 1.19 ± 0.047

Test System: CAL51 BREAST
- surviving fraction ([1]; 0.5 nM): 0.981 ± 0.081
- surviving fraction ([1]; 1 nM): 1.03 ± 0.034
- surviving fraction ([1]; 5 nM): 1.03 ± 0.012
- surviving fraction ([1]; 10 nM): 1.07 ± 0.052
- surviving fraction ([1]; 50 nM): 1.01 ± 0.05
- surviving fraction ([1]; 100 nM): 1.05 ± 0.046
- surviving fraction ([1]; 500 nM): 0.232 ± 0.024
- surviving fraction ([1]; 1000 nM): 0.213 ± 0.012
- surviving fraction ([2]; 0.5 nM): 0.988 ± 0.068
- surviving fraction ([2]; 1 nM): 0.984 ± 0.019
- surviving fraction ([2]; 5 nM): 1.03 ± 0.043
- surviving fraction ([2]; 10 nM): 0.964 ± 0.039
- surviving fraction ([2]; 50 nM): 1.02 ± 0.048
- surviving fraction ([2]; 100 nM): 1.04 ± 0.044
- surviving fraction ([2]; 500 nM): 1.02 ± 0.048
- surviving fraction ([2]; 1000 nM): 1.02 ± 0.028

Test System: MDAMB157 BREAST
- surviving fraction ([1]; 0.5 nM): 1.03 ± 0.087
- surviving fraction ([1]; 1 nM): 0.999 ± 0.027
- surviving fraction ([1]; 5 nM): 1.06 ± 0.076
- surviving fraction ([1]; 10 nM): 0.977 ± 0.044
- surviving fraction ([1]; 50 nM): 1.06 ± 0.11
- surviving fraction ([1]; 100 nM): 1.04 ± 0.082
- surviving fraction ([1]; 500 nM): 0.754 ± 0.021
- surviving fraction ([1]; 1000 nM): 0.601 ± 0.029
- surviving fraction ([2]; 0.5 nM): 0.85 ± 0.017
- surviving fraction ([2]; 1 nM): 0.892 ± 0.1
- surviving fraction ([2]; 5 nM): 0.912 ± 0.081
- surviving fraction ([2]; 10 nM): 1.12 ± 0.1
- surviving fraction ([2]; 50 nM): 1.01 ± 0.092
- surviving fraction ([2]; 100 nM): 1.09 ± 0.14
- surviving fraction ([2]; 500 nM): 1.01 ± 0.1
- surviving fraction ([2]; 1000 nM): 0.957 ± 0.11

Test System: SG43 HEADNECK
- surviving fraction ([1]; 0.5 nM): 1.28 ± 0.25
- surviving fraction ([1]; 1 nM): 1.06 ± 0.15
- surviving fraction ([1]; 5 nM): 1.02 ± 0.062
- surviving fraction ([1]; 10 nM): 0.947 ± 0.31
- surviving fraction ([1]; 50 nM): 0.87 ± 0.073
- surviving fraction ([1]; 100 nM): 0.756 ± 0.094
- surviving fraction ([1]; 500 nM): 0.586 ± 0.027
- surviving fraction ([1]; 1000 nM): 0.271 ± 0.03
- surviving fraction ([2]; 0.5 nM): 1.23 ± 0.2
- surviving fraction ([2]; 1 nM): 1.1 ± 0.39
- surviving fraction ([2]; 5 nM): 0.922 ± 0.036
- surviving fraction ([2]; 10 nM): 0.934 ± 0.21
- surviving fraction ([2]; 50 nM): 1.02 ± 0.51
- surviving fraction ([2]; 100 nM): 0.995 ± 0.12
- surviving fraction ([2]; 500 nM): 0.967 ± 0.13
- surviving fraction ([2]; 1000 nM): 0.987 ± 0.2

Test System: MDAMB231 BREAST
- surviving fraction ([1]; 0.5 nM): 0.997 ± 0.019
- surviving fraction ([1]; 1 nM): 1.01 ± 0.024
- surviving fraction ([1]; 5 nM): 0.999 ± 0.034
- surviving fraction ([1]; 10 nM): 1 ± 0.023
- surviving fraction ([1]; 50 nM): 0.947 ± 0.031
- surviving fraction ([1]; 100 nM): 0.9384 ± 0.0074
- surviving fraction ([1]; 500 nM): 0.541 ± 0.011
- surviving fraction ([1]; 1000 nM): 0.352 ± 0.022
- surviving fraction ([2]; 0.5 nM): 0.991 ± 0.011
- surviving fraction ([2]; 1 nM): 0.998 ± 0.048
- surviving fraction ([2]; 5 nM): 1.02 ± 0.023
- surviving fraction ([2]; 10 nM): 0.992 ± 0.031
- surviving fraction ([2]; 50 nM): 1.02 ± 0.013
- surviving fraction ([2]; 100 nM): 1.03 ± 0.024
- surviving fraction ([2]; 500 nM): 1.02 ± 0.014
- surviving fraction ([2]; 1000 nM): 0.942 ± 0.027

Test System: CAL72 BONE
- surviving fraction ([1]; 0.5 nM): 1.09 ± 0.13
- surviving fraction ([1]; 1 nM): 1.09 ± 0.13
- surviving fraction ([1]; 5 nM): 1.09 ± 0.12
- surviving fraction ([1]; 10 nM): 1.11 ± 0.17
- surviving fraction ([1]; 50 nM): 1.08 ± 0.15
- surviving fraction ([1]; 100 nM): 1.1 ± 0.11
- surviving fraction ([1]; 500 nM): 0.859 ± 0.15
- surviving fraction ([1]; 1000 nM): 0.814 ± 0.17
- surviving fraction ([2]; 0.5 nM): 1.087 ± 0.0031
- surviving fraction ([2]; 1 nM): 1.1 ± 0.023
- surviving fraction ([2]; 5 nM): 1.09 ± 0.056
- surviving fraction ([2]; 10 nM): 1.09 ± 0.043
- surviving fraction ([2]; 50 nM): 1.16 ± 0.012
- surviving fraction ([2]; 100 nM): 1.15 ± 0.019
- surviving fraction ([2]; 500 nM): 1.13 ± 0.048
- surviving fraction ([2]; 1000 nM): 1.07 ± 0.027

Test System: VP229 BREAST
- surviving fraction ([1]; 1 nM): 1.23 ± 0.082
- surviving fraction ([1]; 5 nM): 1.06 ± 0.018
- surviving fraction ([1]; 10 nM): 1.23 ± 0.059
- surviving fraction ([1]; 50 nM): 1.14 ± 0.048
- surviving fraction ([1]; 100 nM): 1.15 ± 0.14
- surviving fraction ([1]; 500 nM): 1.03 ± 0.15
- surviving fraction ([1]; 1000 nM): 0.686 ± 0.14
- surviving fraction ([2]; 0.5 nM): 1.03 ± 0.052
- surviving fraction ([2]; 1 nM): 0.99 ± 0.032
- surviving fraction ([2]; 5 nM): 0.997 ± 0.1
- surviving fraction ([2]; 10 nM): 1.09 ± 0.1
- surviving fraction ([2]; 50 nM): 1.03 ± 0.013
- surviving fraction ([2]; 100 nM): 1.04 ± 0.03
- surviving fraction ([2]; 500 nM): 1.26 ± 0.16
- surviving fraction ([2]; 1000 nM): 1.11 ± 0.16

Test System: CASKI CERVIX
- surviving fraction ([1]; 0.5 nM): 0.955 ± 0.029
- surviving fraction ([1]; 1 nM): 1 ± 0.067
- surviving fraction ([1]; 10 nM): 1.04 ± 0.06
- surviving fraction ([1]; 50 nM): 0.999 ± 0.053
- surviving fraction ([1]; 100 nM): 0.984 ± 0.052
- surviving fraction ([1]; 500 nM): 0.382 ± 0.063
- surviving fraction ([1]; 1000 nM): 0.383 ± 0.029
- surviving fraction ([2]; 0.5 nM): 0.924 ± 0.015
- surviving fraction ([2]; 1 nM): 0.884 ± 0.044
- surviving fraction ([2]; 5 nM): 1.04 ± 0.1
- surviving fraction ([2]; 10 nM): 1.03 ± 0.018
- surviving fraction ([2]; 50 nM): 1.08 ± 0.027
- surviving fraction ([2]; 100 nM): 1.1 ± 0.014
- surviving fraction ([2]; 500 nM): 1.09 ± 0.032
- surviving fraction ([2]; 1000 nM): 1.11 ± 0.05

Test System: BT549 BREAST
- surviving fraction ([1]; 1 nM): 1.07 ± 0.056
- surviving fraction ([1]; 10 nM): 1.06 ± 0.041
- surviving fraction ([1]; 50 nM): 1.05 ± 0.062
- surviving fraction ([1]; 100 nM): 1.09 ± 0.097
- surviving fraction ([1]; 1000 nM): 0.375 ± 0.016
- surviving fraction ([2]; 0.5 nM): 0.768 ± 0.079
- surviving fraction ([2]; 1 nM): 1.07 ± 0.083
- surviving fraction ([2]; 5 nM): 0.991 ± 0.012
- surviving fraction ([2]; 10 nM): 1.02 ± 0.059
- surviving fraction ([2]; 50 nM): 0.92 ± 0.067
- surviving fraction ([2]; 100 nM): 1.15 ± 0.13
- surviving fraction ([2]; 500 nM): 1.07 ± 0.038
- surviving fraction ([2]; 1000 nM): 1.2 ± 0.17

Test System: MHM BONE
- surviving fraction ([1]; 0.5 nM): 1.03 ± 0.037
- surviving fraction ([1]; 1 nM): 1.02 ± 0.034
- surviving fraction ([1]; 5 nM): 1.09 ± 0.053
- surviving fraction ([1]; 10 nM): 1.1 ± 0.047
- surviving fraction ([1]; 50 nM): 1.07 ± 0.02
- surviving fraction ([1]; 100 nM): 1.05 ± 0.021
- surviving fraction ([1]; 500 nM): 0.96 ± 0.011
- surviving fraction ([1]; 1000 nM): 0.884 ± 0.031
- surviving fraction ([2]; 0.5 nM): 1.03 ± 0.038
- surviving fraction ([2]; 1 nM): 1.005 ± 0.0032
- surviving fraction ([2]; 5 nM): 1.03 ± 0.027
- surviving fraction ([2]; 10 nM): 1.05 ± 0.02
- surviving fraction ([2]; 50 nM): 1.07 ± 0.024
- surviving fraction ([2]; 100 nM): 1.05 ± 0.015
- surviving fraction ([2]; 500 nM): 1.03 ± 0.018
- surviving fraction ([2]; 1000 nM): 1.05 ± 0.034
